Results from ChEMBL document CHEMBL1124942, “[D-Pen2,D-Pen5]enkephalin analogues with increased affinity and selectivity for delta opioid receptors” (J Med Chem, 1990).

Assays:
Cavia porcellus = organism: Cavia porcellus; assay: Inhibitory potency was evaluated using strips of guinea pig ileum (GPI) longitudinal muscle-myenteric plexus.; assay type: functional, organism-based
Mus musculus = organism: Mus musculus; assay: Inhibitory potency was evaluated using electrically induced smooth muscle contractions of mouse vas deferens (MVD).; assay type: functional, organism-based

| SMILES | IC50 (Cavia porcellus) | IC50 (Mus musculus) |
| --- | --- | --- |
| CC1(C)SSC(C)(C)[C@@H](NC(=O)[C@@H](N)Cc2ccc(O)cc2)C(=O)NCC(=O)N[C@@H](Cc2ccc(F)cc2)C(=O)N[C@H]1C(=O)O | 5030 nM | 0.84 nM |
| CC1(C)SSC(C)(C)[C@@H](NC(=O)[C@@H](N)Cc2ccc(O)cc2)C(=O)NCC(=O)N[C@@H](Cc2ccc(I)cc2)C(=O)N[C@H]1C(=O)O | 46100 nM | 2.65 nM |
| CC1(C)SSC(C)(C)[C@@H](NC(=O)[C@@H](N)Cc2ccc(O)cc2)C(=O)NCC(=O)N[C@@H](Cc2ccc(Br)cc2)C(=O)N[C@H]1C(=O)O | 13400 nM | 1.5 nM |
| CC1(C)SSC(C)(C)[C@@H](NC(=O)[C@@H](N)Cc2ccc(O)cc2)C(=O)NCC(=O)N[C@@H](Cc2ccc(Cl)cc2)C(=O)N[C@H]1C(=O)O | 4830 nM | 0.89 nM |
